# Measurements as given in US11466044B2 (WAYNE STATE UNIVERSITY, priority 2017, dated 2022).
# Where two headings read alike, the source gives them in different places.
# Assays:
# E coli wild type = experiment: MIC by broth microdilution, wild type E coli; format: cell-based; details: for MIC: Escherichia coli
# [1] = test system: E coli carrying specific resistance determinants; experiment: MIC by broth microdilution, E coli carrying specific resistance determinants; format: cell-based; details: for MIC: Escherichia coli; for MIC APH(3)-VI / MIC APH(3′)-I / MIC APH(3′)-II / MIC APH(3′)-III: Table 3 (Example 1)
# [2] = test system: cytosolic ribosome (human chimeric); format: biochemical; details: cytosolic, read-out: IC50 Cyt
# From the text: (§1) The antiribosomal activity of these compounds was investigated with cell-free translation assays using both wild type bacterial ribosomes and hybrid ribosomes carrying eukaryotic decoding A sites enabling the prediction of selectivity.
# [3] = test system: mitochondrial ribosome (human chimeric); format: biochemical; details: mitochondrial, read-out: IC50 Mit
# From the text: as §1
# [4] = test system: wild type bacterial ribosomes; experiment: in-vitro translation assay, bacterial ribosomes; format: biochemical; details: bacterial ribosome; Table 3 (Example 1); read-out: IC50 Bac
# From the text: as §1
# [5] = read-out: MIC WT, WT, Table 3 (Example 2)
# [6] = ATCC25922, strain AG212 E. coli (ATCC25922), read-out: MIC AG212 E. coli
# [7] = clinical isolate AG160 WT, Table 2 (Example 4), read-out: MIC AG160 E. coli WT
# [8] = engineered strain pH430 WT, Table 2 (Example 4), read-out: MIC pH430 E. coli WT
# [9] = read-out: MIC AG037 E. coli APH(3′)-III
structure (smiles),measurement,setting,value
NCC1O[C@H](O[C@@H]2C(O)[C@H](O[C@@H]3C(O)[C@H](N)CC(N)[C@H]3O[C@H]3OC4C(O)CO[C@H]4[C@H](O)C3N)O[C@@H]2CO)C(N)[C@H](O)[C@@H]1O (stereo partly shown) [DC-204],MIC,E coli wild type; [5],8 µg/mL
same,MIC,[1]; read-out: MIC AAC(6′),16 µg/mL
same,MIC,[1]; read-out: MIC ANT(4′),4 to 8 µg/mL
same,MIC,[1]; read-out: MIC APH(3′)-II,16 to 32 µg/mL
same,MIC,[1]; read-out: MIC APH(3′)-VI,16 µg/mL
same,IC50,[2]; Table 3 (Example 2),131 µM
same,IC50,[3]; Table 3 (Example 2),0.2 µM
NCC1O[C@H](O[C@@H]2C(O)[C@H](O[C@@H]3C(O)[C@H](N)CC(N)[C@H]3O[C@H]3OC4C(O)CO[C@H]4[C@H](O)C3N)O[C@@H]2CO)C(N)[C@H](O)[C@@H]1O (stereo partly shown) [Compound 203],MIC,E coli wild type; [6],32 µg/mL
NC[C@H]1O[C@H](O[C@H]2[C@H](O[C@@H]3O[C@H](CN)[C@@H](O)[C@H]3O)[C@@H](O)[C@H](N)C[C@@H]2N)[C@H](N)[C@@H](O)[C@@H]1O [Compound 048],MIC WT,"E coli wild type; WT, Table 3 (Example 1)",2 to 4 µg/mL
same,MIC APH(3)-VI,[1],64 µg/mL
same,MIC APH(3′)-I,[1],>64 µg/mL
same,MIC APH(3′)-II,[1],>64 µg/mL
same,MIC APH(3′)-III,[1],>64 µg/mL
same,IC50,[4],90 nM
same,IC50,[3]; Table 3 (Example 1),76 µM
CC(=O)NC[C@H]1O[C@@H](O[C@@H]2C(O)[C@H](N)CC(N)[C@H]2O[C@H]2OC(CN)[C@@H](O)[C@H](O)C2N)C(O)[C@H]1O (stereo partly shown) [Compound 129],MIC,E coli wild type; [7],64 µg/mL
same,MIC,E coli wild type; [8],32 µg/mL
same,MIC,[1]; [9],> 64 µg/mL
CC[C@@H]1C(CO)O[C@H](O[C@@H]2C(N)C[C@@H](N)C(O)[C@H]2O[C@@H]2O[C@H](CO)[C@H](O[C@H]3OC(CN)[C@@H](O)C(O)C3N)C2O)[C@@H](N)C1O (stereo partly shown) [Compound 206],MIC,E coli wild type; [6],8 µg/mL
NC[C@@H]1O[C@H](O[C@@H]2C(O)[C@H](O[C@@H]3C(O)[C@H](N)CC(N)[C@H]3O[C@H]3OC4C(O)CCCO[C@H]4[C@H](O)C3N)O[C@@H]2CO)C(N)C(O)[C@@H]1O (stereo partly shown) [DC-196],MIC,E coli wild type; [5],4 µg/mL
same,MIC,[1]; read-out: MIC AAC(6′),4 µg/mL
same,MIC,[1]; read-out: MIC ANT(4′),2 µg/mL
same,MIC,[1]; read-out: MIC APH(3′)-II,16 µg/mL
same,MIC,[1]; read-out: MIC APH(3′)-VI,16 µg/mL
same,IC50,[2]; Table 3 (Example 2),200 µM
same,IC50,[3]; Table 3 (Example 2),0.14 µM
NC[C@@H]1O[C@H](O[C@@H]2C(O)[C@H](O[C@@H]3C(O)[C@H](N)CC(N)[C@H]3O[C@H]3OC4C(O)CCO[C@H]4[C@H](O)C3N)O[C@@H]2CO)C(N)C(O)[C@@H]1O (stereo partly shown) [Compound 211],MIC,E coli wild type; [6],32 to 64 µg/mL
NCC1OC(OC2C(N)CC(N)C(O)C2OC2OC(CNC=O)C(O)C2O)C(N)C(O)C1O (stereo not shown) [Compound 130],MIC,"E coli wild type; WT, Table 3 (Example 1), read-out: MIC WT",4 µg/mL
same,MIC,E coli wild type; [7],16 µg/mL
same,MIC,E coli wild type; [8],4 µg/mL
same,MIC,[1]; [9],> 128 µg/mL
same,MIC,[1]; read-out: MIC AG163 E. coli APH(3′)-I,> 128 µg/mL
same,MIC,[1]; read-out: MIC AG166 E. coli APH(3′)-II,> 128 µg/mL
same,MIC,[1]; read-out: MIC APH(3)-VI,> 64 µg/mL
same,MIC,[1]; read-out: MIC APH(3′)-I,> 64 µg/mL
same,MIC,[1]; read-out: MIC APH(3′)-II,> 64 µg/mL
same,MIC,[1]; read-out: MIC APH(3′)-III,> 64 µg/mL
same,MIC,[1]; read-out: MIC pH421 E. coli APH(3′)-I,> 64 µg/mL
same,MIC,[1]; read-out: MIC pH422 E. coli APH(3′)-II,> 64 µg/mL
same,MIC,[1]; read-out: MIC pH423 E. coli APH(3′)-VI,> 64 µg/mL
same,IC50,[4],240 nM
same,IC50,[2]; Table 3 (Example 1),359 µM
same,IC50,[3]; Table 3 (Example 1),364 µM
NC[C@@H]1O[C@H](O[C@H]2[C@@H](O)[C@H](O[C@@H]3[C@@H](O)[C@H](N)C[C@H](N)[C@H]3O[C@H]3O[C@H](CN)[C@@H](O)C[C@H]3N)O[C@@H]2CO)[C@H](N)[C@@H](O)[C@@H]1O [Compound 140],MIC WT,"E coli wild type; WT, Table 3 (Example 1)",1 µg/mL
same,MIC AG160 E. coli WT,"E coli wild type; clinical isolate AG160 WT, Table 2 (Example 4)",1 µg/mL
same,MIC pH430 E. coli WT,"E coli wild type; engineered strain pH430 WT, Table 2 (Example 4)",1 μg/ml
same,MIC APH(3)-VI,[1],1 µg/mL
same,MIC APH(3′)-I,[1],>32 µg/mL
same,MIC APH(3′)-II,[1],1 µg/mL
same,MIC APH(3′)-III,[1],32 µg/mL
same,MIC AG163 E. coli APH(3′)-I,"[1]; clinical isolate AG163 APH(3′)-I, Table 2 (Example 4)",64 µg/mL
same,MIC AG166 E. coli APH(3′)-II,"[1]; clinical isolate AG166 APH(3′)-II, Table 2 (Example 4)",1 µg/mL
same,MIC AG037 E. coli APH(3′)-III,"[1]; engineered strain AG037 APH(3′)-III, Table 2 (Example 4)",32 µg/mL
same,MIC pH421 E. coli APH(3′)-I,"[1]; engineered strain pH421 APH(3′)-I, Table 2 (Example 4)",>32 μg/ml
same,MIC pH422 E. coli APH(3′)-II,"[1]; engineered strain pH422 APH(3′)-II, Table 2 (Example 4)",1 μg/ml
same,MIC pH423 E. coli APH(3′)-VI,"[1]; engineered strain pH423 APH(3′)-VI, Table 2 (Example 4)",1 μg/ml
same,IC50,[4],40 nM
same,IC50,[2]; Table 3 (Example 1),66 µM
same,IC50,[3]; Table 3 (Example 1),4.6 µM
NC[C@H]1O[C@H](O[C@H]2[C@H](O[C@@H]3O[C@H](CO)[C@@H](O)[C@H]3O)[C@@H](O)[C@H](N)C[C@@H]2N)[C@H](N)C[C@@H]1O [Compound 047],MIC WT,"E coli wild type; WT, Table 3 (Example 1)",2 to 4 µg/mL
same,MIC APH(3)-VI,[1],4 µg/mL
same,MIC APH(3′)-I,[1],>64 µg/mL
same,MIC APH(3′)-II,[1],2 to 4 µg/mL
same,MIC APH(3′)-III,[1],>64 µg/mL
same,IC50,[4],100 nM
same,IC50,[2]; Table 3 (Example 1),293 µM
same,IC50,[3]; Table 3 (Example 1),325 µM
